Source: US9676796B2, “Tricyclic benzoxaborole compound, preparation method and use thereof” (DONG-A ST CO., LTD., priority 2013, dated 2017)
Values after ≈ are worked out from the molar mass of the structure shown.

Columns and labels:
[1] = system: Carbapenem-resistant Acinetobacter baumannii BAA-1605; test: Antibacterial activity in animal infection model (mouse systemic infection); type: in vivo; conditions: for ED50: Acinetobacter baumannii, BAA1605, read-out: ED50 (dose needed for the 50 percentage survival rate); for ED50 times as low as ED50 value of Compound C: mouse systemic infection, A. baumannii BAA-1605, oral
Description: Antibacterial activity of the compounds from the present invention was examined in vivo according to the method described in S. Choi et al (Antimicrob. Agents Chemother 56 (9) 4713-4717. 2012).
Carbapenem-resistant Acinetobacter baumannii BAA-1605 was used as test strain and the test strain was intraperitoneally injected into mouse to cause the systemic infection. After 1 hour of infection, the compounds of EXAMPLEs 1, 2, 3, 5 and the control compounds were administrated orally to the mice.

S. marcescens = test: Antibacterial activity in vitro, agar plate dilution MIC; type: cell-based; conditions: Serratia marcescens; clinical isolate, Mueller-Hinton agar dilution
Description: (§1) The antibacterial activity of the novel derivatives prepared by EXAMPLE 1 to 5 was evaluated in vitro by agar plate dilution method using Mueller-Hinton agar according to the NCCLS (National Committee for Clinical Laboratory Standards. 2000. Methods for dilution antimicrobial susceptibility tests for bacteria that grow aerobically. Approved standard, NCCLS document M7-A5, 5th ed, vol 20, no. 2. National Committee for Clinical Laboratory Standards, Wayne, Pa.). The test strains were clinical isolates from patients in general hospital in Korea from 2010 to 2013. The antibacterial activity was examined against important gram-negative bacteria including carbapenem-resistant Acinetobacter baumannii (A. baumannii), carbapenem-resistant Pseudomonas aeruginosa (P. aeruginosa), Escherichia coli (E. coli), and Klebsiella pneumonia (K. pneumonia) and was expressed as minimum inhibitory concentrations (MIC, μg/ml) in table 1.

N. gonorrhoeae = test: as above; type: cell-based; conditions: Neisseria gonorrhoeae; clinical isolate, Mueller-Hinton agar dilution
[2] = system: carbapenem-resistant Acinetobacter baumannii (A. baumannii); test: as above; type: cell-based; conditions: carbapenem-resistant clinical isolate, Mueller-Hinton agar dilution
Description: as §1
(§2) The antibacterial activity of compounds (in Preparation Examples 1 to 4) and meropenem (MEPM, carbapenem-based antibiotics) were examined according to the same method shown as EXPERIMENTAL EXAMPLE 1.

P. vulgaris = test: as above; type: cell-based; conditions: Proteus vulgaris; clinical isolate, Mueller-Hinton agar dilution
Description: as §1, §2

E. cloacae = test: as above; type: cell-based; conditions: Enterobacter cloacae; clinical isolate, Mueller-Hinton agar dilution
Description: as §1, §2

K. oxytoca = test: as above; type: cell-based; conditions: Klebsiella oxytoca; clinical isolate, Mueller-Hinton agar dilution
Description: as §1, §2

[3] = system: carbapenem-resistant Pseudomonas aeruginosa (P. aeruginosa); test: as above; type: cell-based; conditions: carbapenem-resistant clinical isolate, Mueller-Hinton agar dilution
Description: as §1, §2

C. freundii = test: as above; type: cell-based; conditions: Citrobacter freundii; clinical isolate, Mueller-Hinton agar dilution
Description: as §1, §2

[4] = system: Klebsiella pneumoniae (K. pneumoniae); test: as above; type: cell-based; conditions: clinical isolate, Mueller-Hinton agar dilution
Description: as §1, §2

M. morganii = test: as above; type: cell-based; conditions: Morganella morganii; clinical isolate, Mueller-Hinton agar dilution
Description: as §1, §2

[5] = system: Escherichia coli (E. coli); test: as above; type: cell-based; conditions: clinical isolate, Mueller-Hinton agar dilution
Description: as §1, §2

P. mirabilis = test: as above; type: cell-based; conditions: Proteus mirabilis; clinical isolate, Mueller-Hinton agar dilution
Description: as §1, §2

E. aerogenes = test: as above; type: cell-based, Enterobacter aerogenes; conditions: Klebsiella aerogenes; clinical isolate, Mueller-Hinton agar dilution
Description: as §1, §2

With `C[C@@H]1COB2O[C@H](CN)c3cccc(c32)O1.Cl` [EXAMPLE 3, ((2S,7R)-7-methyl-7,8-dihydro-2H-1,6,9-trioxa-9a-borabenzo[cd]azulen-2-yl)methanamine hydrochloride] the ED50 [1] was 0.909 mg/kg, the “ED50 times as low as ED50 value of Compound C” value [1] was 9.98 times and the MIC (S. marcescens) was 4 µg/mL. The MIC (N. gonorrhoeae) was 0.5 µg/mL, the MIC [2] was 1 µg/mL and the MIC (P. vulgaris) was 2 µg/mL. It also gave an MIC (E. cloacae) of 1 µg/mL, an MIC (K. oxytoca) of 1 µg/mL and an MIC [3] of 16 µg/mL. For the same compound, the MIC (C. freundii) was 1 µg/mL, the MIC [4] was 2 µg/mL and the MIC (M. morganii) was 1 µg/mL. For the same compound, the MIC [5] was 1 µg/mL, the MIC (P. mirabilis) was 2 µg/mL and the MIC (E. aerogenes) was 2 µg/mL.

For `C[C@H]1COB2O[C@H](CN)c3cccc(c32)O1.Cl` [EXAMPLE 5, ((2S, 7S)-7-methyl-7,8-dihydro-2H-1,6,9-trioxa-9a-borabenzo[cd]azulen-2-yl)methanamine hydrochloride], the ED50 [1] was 1.36 mg/kg, the “ED50 times as low as ED50 value of Compound C” value [1] was 6.69 times and the MIC (S. marcescens) was 4 µg/mL. The MIC (N. gonorrhoeae) was 2 µg/mL, the MIC [2] was 4 µg/mL and the MIC (P. vulgaris) was 2 µg/mL. For the same compound, the MIC (E. cloacae) was 1 µg/mL, the MIC (K. oxytoca) was 2 µg/mL and the MIC [3] was 8 µg/mL. It also gave an MIC (C. freundii) of 1 µg/mL, an MIC [4] of 2 µg/mL and an MIC (M. morganii) of 0.5 µg/mL. The MIC [5] was 1 µg/mL, the MIC (P. mirabilis) was 2 µg/mL and the MIC (E. aerogenes) was 4 µg/mL.

For `C[C@@H](O)[C@H]1C(=O)N2C(C(=O)O)=C(S[C@@H]3CN[C@H](C(=O)N(C)C)C3)[C@H](C)[C@H]12` [MEPM, meropenem, reference compound], the MIC [2] was 32 µg/mL (≈ 83.4 µM), the MIC (P. vulgaris) was 0.0625 µg/mL (≈ 0.163 µM) and the MIC (E. cloacae) was under 0.0313 µg/mL. For the same compound, the MIC (K. oxytoca) was under 0.0313 µg/mL, the MIC [3] was 32 µg/mL (≈ 83.4 µM) and the MIC (C. freundii) was under 0.0313 µg/mL. For the same compound, the MIC [4] was under 0.0313 µg/mL, the MIC (M. morganii) was 0.125 µg/mL (≈ 0.326 µM) and the MIC [5] was under 0.0313 µg/mL. For the same compound, the MIC (P. mirabilis) was 0.0625 µg/mL (≈ 0.163 µM) and the MIC (E. aerogenes) was under 0.0313 µg/mL.

For `C[C@@H]1COB2O[C@H](CN)c3cccc(c32)O1` [compound 4, ((2S,7R)-7-methyl-7,8-dihydro-2H-1,6,9-trioxa-9a-borabenzo[cd]azulen-2-yl) methanamine], the MIC (S. marcescens) was 2 µg/mL (≈ 9.13 µM), the MIC (N. gonorrhoeae) was 0.5 µg/mL (≈ 2.28 µM) and the MIC [2] was 1 µg/mL (≈ 4.57 µM). The MIC (P. vulgaris) was 1 µg/mL (≈ 4.57 µM), the MIC (E. cloacae) was 1 µg/mL (≈ 4.57 µM) and the MIC (K. oxytoca) was 1 µg/mL (≈ 4.57 µM). The MIC [3] was 8 µg/mL (≈ 36.5 µM), the MIC (C. freundii) was 0.5 µg/mL (≈ 2.28 µM) and the MIC [4] was 1 µg/mL (≈ 4.57 µM). The MIC (M. morganii) was 0.5 µg/mL (≈ 2.28 µM), the MIC [5] was 1 µg/mL (≈ 4.57 µM) and the MIC (P. mirabilis) was 1 µg/mL (≈ 4.57 µM). The MIC (E. aerogenes) was 1 µg/mL (≈ 4.57 µM).

`Cl.NCC1OB2OCC(CO)Oc3cccc1c32` (centres unmarked) [compound D, (2-(aminomethyl)-7,8-dihydro-2H-1,6,9-trioxa-9a-borabenzo[cd]azulen-7-yl)methanol hydrochloride, reference compound] gave an MIC [2] of 16 µg/mL, an MIC (P. vulgaris) of 16 µg/mL and an MIC (E. cloacae) of 8 µg/mL. The MIC (K. oxytoca) was 8 µg/mL, the MIC [3] was 64 µg/mL and the MIC (C. freundii) was 4 µg/mL. It also gave an MIC [4] of 16 µg/mL, an MIC (M. morganii) of 8 µg/mL and an MIC [5] of 8 µg/mL. For the same compound, the MIC (P. mirabilis) was 16 µg/mL and the MIC (E. aerogenes) was 8 µg/mL.
